41 compounds from patent publication US6310095A, “Inhibitors of protein isoprenyl transferases” (University of Pittsburgh, priority 1998, dated 2001) can be followed below.

For the first assay, the target named is T1, protein farnesyltransferase (Rattus norvegicus, UniProt Q02293+Q04631).
T1 construct: Rat brain protein farnesyltransferase activity is measured; from tissue; host or cells: rat brain; purified according to Reiss et al., Cell 62:81-88 (1990), steps one through three
As to the kind of experiment: in vitro inhibition of protein farnesyltransferase (scintillation proximity assay, biotin-K Ras B fragment). The class given is biochemical. As to conditions: at 1 × 10^-5 M. An excerpt: The ability of the compounds of the invention to inhibit protein farnesyltransferase or protein geranylgeranyltransferase can be measured according to the method of Moores, et al., J. Biol. Chem. 266: 14603 (1991) or the method of Vogt, et al., J. Biol. Chem. 270:660-664 (1995). In addition, procedures for determination of the inhibition of farnesylation of the oncogene protein Ras are described by Goldstein, et al., J. Biol. Chem., 266:15575-15578 (1991) and by Singh in U.S. Pat. No. 5,245,061.
In addition, in vitro inhibition of protein farnesyltransferase may be measured by the following procedure. Rat brain protein farnesyltransferase activity is measured using an Amersham Life Science commercial scintillation proximity assay kit and substituting a biotin-K Ras B fragment (biotin-[…]CO2 H), 0.1 mM final concentration, for the biotin-lamin substrate provided by Amersham. The enzyme is purified according to Reiss, Y., et al., Cell, 62: 81-88 (1990), utilizing steps one through three.
The % inhibition of protein farnesyltransferase was determined for representative compounds of the invention.
(In a scintillation proximity assay essentially only radioactivity close to the scintillant gives light.)
`CSCC[C@H](NC(=O)c1ccc(CNCCN2CCCCC2)cc1-c1ccccc1)C(=O)O` [Example 366] showed an inhibition at 10 µM of 83%.
In turn, `CSCC[C@H](NC(=O)c1ccc(CNCCc2cccs2)cc1-c1ccccc1)C(=O)O` [Example 369] came in with an inhibition at 10 µM of 87%.
Turning to `CSCC[C@H](NC(=O)c1ccc(CNc2cc[nH]n2)cc1-c1ccccc1)C(=O)O` [Example 370], the inhibition at 10 µM is 86%.
As to `CSCC[C@H](NC(=O)c1ccc(CNc2nnc(C)s2)cc1-c1ccccc1)C(=O)O` [Example 371], the inhibition at 10 µM worked out at 66%.
`CSCC[C@H](NC(=O)c1ccc(CNc2cc(C)on2)cc1-c1ccccc1)C(=O)O` [Example 372] yielded an inhibition at 10 µM of 69%.
In turn, `CSCC[C@H](NC(=O)c1ccc(CNc2cc(C)ns2)cc1-c1ccccc1)C(=O)O` [Example 373] showed an inhibition at 10 µM of 76%.
The compound `CSCC[C@H](NC(=O)c1ccc(CNc2nccs2)cc1-c1ccccc1)C(=O)O` [Example 374] registered an inhibition at 10 µM of 61%.
In the case of `CSCC[C@H](NC(=O)c1ccc(CNCCCN2CCOCC2)cc1-c1ccccc1)C(=O)O` [Example 377], the inhibition at 10 µM was 71%.
The compound `CSCC[C@H](NC(=O)c1ccc(CNc2cc(C(C)(C)C)[nH]n2)cc1-c1ccccc1)C(=O)O` [Example 381] displayed an inhibition at 10 µM of 79%.

Still in this assay, the particulars now being: at 1 × 10^-6 M.
Turning to `CSCC[C@H](NC(=O)c1ccc(COCCC23CC4CC(CC(C4)C2)C3)cc1-c1ccccc1C)C(=O)O` [Example 404], the “% inhibition of farnesyltransferase” value was 98%.
Turning to `CSCC[C@H](NC(=O)c1ccc(COCCCC2CCCCC2)cc1-c1ccccc1C)C(=O)O` [Example 405], the “% inhibition of farnesyltransferase” value worked out at 98%.
Regarding `CSCC[C@H](NC(=O)c1ccc(COCc2ccc(CN(C)C)o2)cc1-c1ccccc1C)C(=O)O` [Example 435], the “% inhibition of farnesyltransferase” value came to 96%.
`CSCC[C@H](NC(=O)c1ccc(CCc2ccccc2-c2ccccc2)cc1-c1ccccc1C)C(=O)[O-].[Li+]` [Example 452]: the “% inhibition of farnesyltransferase” value came out at 96%.
As to `CSCC[C@H](NC(=O)c1ccc(C=Cc2ccccc2Oc2ccccc2)cc1-c1ccccc1C)C(=O)[O-].[Li+]` [Example 453], the “% inhibition of farnesyltransferase” value was found to be 90%.
In the case of `Cc1ccccc1-c1cc(CCc2ccccc2Oc2ccccc2)ccc1C(=O)N[C@@H](CC[S+](C)[O-])C(=O)O` (some centres unmarked) [Example 456], the “% inhibition of farnesyltransferase” value is on record as 81%.
Turning to `CSCC[C@H](NC(=O)c1ccc(C=Cc2ccccc2Cc2ccccc2)cc1-c1ccccc1C)C(=O)[O-].[Li+]` [Example 457], the “% inhibition of farnesyltransferase” value was 92%.
Same read-out and setting: in the case of `Cc1ccccc1-c1cc(CCc2cccc(Oc3ccccc3)c2)ccc1C(=O)N[C@@H](CC[S+](C)[O-])C(=O)O` (some centres unmarked) [Example 460] it was 88%.
On to `Cc1ccccc1-c1cc(CCc2ccc(Oc3ccccc3)cc2)ccc1C(=O)N[C@@H](CC[S+](C)[O-])C(=O)O` (some centres unmarked) [Example 463], for which the “% inhibition of farnesyltransferase” value is 91%.
Same read-out and setting: the same measure for `CSCC[C@H](NC(=O)c1ccc(/C=C/c2ccc3ccccc3c2)cc1-c1ccccc1C)C(=O)O` [Example 465]: 92%.
For the compound `CSCC[C@H](NC(=O)c1ccc(/C=C/c2cccc3ccccc23)cc1-c1ccccc1C)C(=O)O` [Example 466], the “% inhibition of farnesyltransferase” value stood at 93%.
Regarding `CSCC[C@H](NC(=O)c1ccc(CCc2cccc3ccccc23)cc1-c1ccccc1C)C(=O)[O-].[Li+]` [Example 467], the “% inhibition of farnesyltransferase” value was 97%.

Staying with this assay, now noted: at 1 × 10^-6 M; read-out: % inhibition of farnesyltransferase.
`CCSC[C@H](CC1CCCCC1)NCc1ccc(C(=O)N[C@@H](CCSC)C(=O)O)c(-c2ccccc2C)c1` [Example 403, [4-(1-ethylthio-3-cyclohexylprop-2-ylaminomethyl)-2-(2-methylphenyl)benzoyl]methionine]: the inhibition at 1 µM is 99%.
Consider `CSCC[C@H](NC(=O)c1ccc(CN(Cc2ccccc2)c2ccccc2)cc1-c1ccccc1C)C(=O)O` [Example 406, 4-(N-benzyl-N-phenyl)-aminomethyl-2-(2-methylphenyl)benzoylmethionine], for which the inhibition at 1 µM turned out to be 95%.

The assay is the same for the next values; noted with them: at 1 × 10^-7 M.
In the case of `CSCC[C@H](NC(=O)c1ccc(COCc2ccc(Br)o2)cc1-c1ccccc1C)C(=O)[O-].[Li+]` [Example 434], the “% inhibition of farnesyltransferase” value is given as 93%.
In the case of `CSCC[C@H](NC(=O)c1ccc(COCc2ccc(-c3cccc(F)c3)o2)cc1-c1ccccc1C)C(=O)[O-].[Li+]` [Example 436], the “% inhibition of farnesyltransferase” value stood at 89%.
On to `CSCC[C@H](NC(=O)c1ccc(COCc2ccc(-c3ccccc3F)o2)cc1-c1ccccc1C)C(=O)[O-].[Li+]` [Example 437], for which the “% inhibition of farnesyltransferase” value was 89%.
Same read-out and setting: the same measure for `CSCC[C@H](NC(=O)c1ccc(COCc2ccc(-c3ccccc3C(F)(F)F)o2)cc1-c1ccccc1C)C(=O)[O-].[Li+]` [Example 438]: 90%; for `CSCC[C@H](NC(=O)c1ccc(COCc2ccc(-c3cccc([N+](=O)[O-])c3)o2)cc1-c1ccccc1C)C(=O)[O-].[Li+]` [Example 440]: 92%.
Turning to `CSCC[C@H](NC(=O)c1ccc(COCc2ccc(-c3cccc(C(F)(F)F)c3)o2)cc1-c1ccccc1C)C(=O)[O-].[Li+]` [Example 441], the “% inhibition of farnesyltransferase” value was determined as 91%.
For `COc1cccc(-c2ccc(COCc3ccc(C(=O)N[C@@H](CCSC)C(=O)[O-])c(-c4ccccc4C)c3)o2)c1.[Li+]` [Example 442], the “% inhibition of farnesyltransferase” value is on record as 88%.
For the compound `CSCC[C@H](NC(=O)c1ccc(COCc2ccc(-c3ccc(Cl)cc3)o2)cc1-c1ccccc1C)C(=O)O` [Example 443], the “% inhibition of farnesyltransferase” value stood at 97%.
Consider `CSCC[C@H](NC(=O)c1ccc(COCc2ccc(-c3ccc(C(F)(F)F)cc3)o2)cc1-c1ccccc1C)C(=O)[O-].[Li+]` [Example 445], for which the “% inhibition of farnesyltransferase” value was found to be 94%.
With `COc1ccc(-c2ccc(COCc3ccc(C(=O)N[C@@H](CCSC)C(=O)[O-])c(-c4ccccc4C)c3)o2)cc1.[Li+]` [Example 446], the “% inhibition of farnesyltransferase” value was determined as 91%.
As for `CSCC[C@H](NC(=O)c1ccc(COCc2ccc(-c3ccc(SC)cc3)o2)cc1-c1ccccc1C)C(=O)[O-].[Li+]` [Example 447], the “% inhibition of farnesyltransferase” value was found to be 91%.
In the case of `CSCC[C@H](NC(=O)c1ccc(COCc2ccc(-c3ccc(C=O)cc3)o2)cc1-c1ccccc1C)C(=O)[O-].[Li+]` [Example 448], the “% inhibition of farnesyltransferase” value is listed as 92%.
For the compound `CSCC[C@H](NC(=O)c1ccc(COCc2ccc(-c3ccc(C(C)=O)cc3)o2)cc1-c1ccccc1C)C(=O)[O-].[Li+]` [Example 449], the “% inhibition of farnesyltransferase” value is on record as 91%.
As for `CSCC[C@H](NC(=O)c1ccc(CCc2ccccc2Oc2ccccc2)cc1-c1ccccc1C)C(=O)[O-].[Li+]` [Example 455], the “% inhibition of farnesyltransferase” value is listed as 83%.
Take `CSCC[C@H](NC(=O)c1ccc(CCc2ccccc2Cc2ccccc2)cc1-c1ccccc1C)C(=O)O` [Example 458]: the “% inhibition of farnesyltransferase” value was found to be 87%.
As for `CSCC[C@H](NC(=O)c1ccc(CCc2cccc(Oc3ccccc3)c2)cc1-c1ccccc1C)C(=O)[O-].[Li+]` [Example 459], the “% inhibition of farnesyltransferase” value stood at 92%.
As to `CSCC[C@H](NC(=O)c1ccc(CCc2ccc(C3CCCCC3)cc2)cc1-c1ccccc1C)C(=O)[O-].[Li+]` [Example 461], the “% inhibition of farnesyltransferase” value stood at 93%.
Consider `CSCC[C@H](NC(=O)c1ccc(CCc2ccc(Oc3ccccc3)cc2)cc1-c1ccccc1C)C(=O)[O-].[Li+]` [Example 462], for which the “% inhibition of farnesyltransferase” value worked out at 91%.

Broadly, the inhibition is the change of the read-out against control, counted positive when it falls.
